For one data set, the system named is P. falciparum K1 strain. Kind of data set: Antiplasmodial activity against resistant P. falciparum K1. It counts as cell-based. The conditions noted are these: Plasmodium falciparum, 3D7 / K1; resistant K1, in parallel with 3D7; read-out: IC50^K1 ± SD.
A short description of a further data set: Rat hepatocyte stability. As to conditions: for R Heps (Clint): rat hepatocyte stability. It counts as in vitro ADME. As to the method: The reaction was terminated with the addition of ice-cold MeCN at designated time points. The samples were then centrifuged (4200 rpm) for 20 min at 20 °C, and the supernatant was half diluted in water and then analyzed using LCMS/MS. The % parent compound remaining, half-life (t 1/2), and clearance (CLint) were calculated using standard methodology. The experiment was carried out in duplicate. Diltiazem, 7-Ethoxy Coumarin, Propranolol, and Midazolam were used as reference standards.

Data set [1] can be described thus: Human liver microsome stability. It counts as in vitro ADME. The conditions noted are these: human microsomal intrinsic clearance; for microsomal CLint at 1 μM: human, pooled human liver microsomes, read-out: hMics, human microsome Clint. How it is done:
A solution of the test compounds in phosphate buffer solution (1 μM) was incubated in pooled human or mouse liver microsomes (0.5 mg/mL) for 0, 5, 20, 30, 45, and 60 min at 37 °C in the presence and absence of an NADPH regeneration system (NRS). The tests were conducted by […], India. The reaction was terminated with the addition of ice-cold acetonitrile, containing a […] standard, at designated time points. The sample was centrifuged (4200g) for 20 min at 20 °C and the supernatant was diluted by half in water and then analyzed by LC-MS/MS. The % parent compound remaining, half-life (t 1/2) and clearance (CLint) were calculated using standard methodology. The experiment was carried out in duplicate. Verapamil, diltiazem, phenacetin, and imipramine were used as reference standards.
In general terms: Liver microsomes are vesicles of endoplasmic reticulum, rich in cytochrome P450 enzymes.

A short description of data set [2]: Kinetic solubility at pH 7.4. It counts as physicochemical. The conditions noted are these: phosphate-buffered saline, 25 °C, pH 7.4, aqueous buffer, kinetic from dmso stock; read-out: Kinetic solubility (Sol). How it is done:
Kinetic solubility assay was performed using UV–vis detection. […] The samples were filtered using a multiscreen solubility filter plate. The filtrate was diluted by 50% with MeCN. A five-point linearity curve was prepared in PBS/MeCN (1:1, v/v) at 200, 150, 75, 25, and 2.5 μM. Blank, linearity, and test samples (n = 2) were transferred to a UV-readable plate, and the plate was scanned for absorbance. Best-fit calibration curves were constructed using the calibration standards and used to determine the test sample solubility. The experiment was carried out in duplicate. Diethylstilbestrol, Haloperidol, and Diclofenac Sodium were used as reference standards.

The subject of the next data set is HepG2 cells. Nature of the data set: Resazurin assay for cytotoxicity in HepG2 cells. As to conditions: Homo sapiens, HepG2. The format is cell-based, human. How it is done: (§1) HepG2 cells were trypsinized, counted, and distributed in a 96-well plate at a density of 30,000 cells per well (180 μL). The plate was incubated at 37 °C and 5% CO2 for 24 h. Following incubation, 20 μL of serial dilutions of the tested compounds were added to the wells, with concentrations ranging from 30 to 0.47 μM. The plate was incubated for an additional 72 h at 37 °C and 5% CO2. Untreated cells served as positive controls, while wells containing only medium were used as negative controls. Postincubation, microscopy was employed to determine the highest compound concentration for treatment results. […] Concentration–response curves were generated, and half-maximal inhibitory concentration (CC50) values were determined using nonlinear regression analysis.

Data set [3] can be described thus: Resazurin assay for cytotoxicity in HepG2 cells. The format is cell-based, human. As to conditions: human, HepG2 cells; HepG2 cell line, 72 h, resazurin. As to the method:
as §1
A general note: The colour change of resazurin is a common sign of viable cells or microbes.

Data set [4] concerns P. falciparum 3D7 strain (Pf3D7). Kind of data set: Antiplasmodial activity against P. falciparum 3D7 blood-stage parasites (SYBR Green, 72 h). It counts as cell-based, Plasmodium falciparum. As to conditions: 3D7 strain, 72 h, SYBR Green, read-out: Pf3D7-IC50.
The subject of another data set is P. falciparum. Kind of data set: Parasite reduction ratio (PRR) assay, in vitro rate of kill. It counts as cell-based, Plasmodium falciparum. The source says:
This library was designed to maximize chemical diversity and novelty of compounds with physicochemical properties consistent with potential for further development.

Data set [5] concerns P. falciparum NF54 strain. Nature of the data set: Antiplasmodial activity against P. falciparum NF54 (SYBR Green, 72 h). The conditions noted are these: read-out: NF54-IC50. The format is cell-based, Plasmodium falciparum.
The test system of another data set is P. falciparum Dd2 strain. Kind of data set: Antiplasmodial activity against resistant P. falciparum Dd2. It counts as cell-based. The conditions noted are these: Plasmodium falciparum, 3D7 / DD2; resistant Dd2, in parallel with 3D7; read-out: IC50^Dd2 ± SD.
Data set [6] in a line: eLogD at pH 7.4, miniaturized shake flask method. The format is physicochemical. The conditions noted are these: for logD at 2 h: 1-octanol/PBS (1:1, v/v), pH 7.4, pH 7.4, miniaturized shake flask method. How it is done: eLogD at pH 7.4 was determined using a miniaturized shake flask method. A solution of a presaturated mixture of 1-octanol and phosphate-buffered saline (PBS) (1:1, v/v) and the test compound (75 μM) was incubated at 25 °C with constant shaking (850 rpm) for 2h. After incubation, the organic and aqueous phases were separated, and samples of each phase were transferred to a plate for dilution. […] The samples were quantitated using LC-MS/MS. The experiment was carried out in duplicate. Propranolol, Amitriptyline, and Midazolam were used as reference standards.

Data set [7] deals with P. falciparum (3D7 strain) digestive vacuole. Nature of the data set: Digestive vacuole homeostasis, acridine orange fluorescence. The format is cell-based, Plasmodium falciparum. The conditions noted are these: 10 μM, 3 min treatment, isolated parasites. As to the method: The sample was incubated for 40 min at 37 °C. […] Fluorescence was measured in a Hitachi F-7000 fluorimeter (Tokyo, Japan) by continuous measurement of the fluorescence (λex = 488 nm; λem = 560 nm) at 37 °C. Experiments were performed in triplicate.

Data set [8] relates to P. vivax field isolates from Brazil. Kind of data set: Ex vivo drug susceptibility of P. vivax field isolates. The format is cell-based. As to conditions: Plasmodium vivax; for IC50: read-out: median IC50 (range), P. vivax (9); for EC50: read-out: median EC50 against P. vivax field isolates.
Data set [9] deals with P. falciparum field isolates from Brazil. Kind of data set: Ex vivo drug susceptibility of P. falciparum field isolates. It counts as cell-based, Plasmodium falciparum. The conditions noted are these: Plasmodium falciparum; for IC50: read-out: median IC50 (range), P. falciparum (7); for EC50: read-out: median EC50 against P. falciparum isolates.
The subject of another data set is P. falciparum 3D7 clone. Nature of the data set: Ex vivo schizont maturation assay, 3D7 laboratory strain control. The format is cell-based. The conditions noted are these: Plasmodium falciparum.
In data set [10] the test system is P. falciparum 3D7 (chloroquine-sensitive). Kind of data set: Effect of verapamil on inhibitory activity in P. falciparum 3D7. It counts as cell-based. As to conditions: Plasmodium falciparum.
Data set [11] concerns synchronized P. falciparum parasites (3D7 strain). Kind of data set: P. falciparum asexual blood stage-specificity assay (8 h exposures). The format is cell-based, Plasmodium falciparum.
The test system of data set [12] is P. falciparum Dd2 (chloroquine resistance). Kind of data set: Effect of verapamil on inhibitory activity in P. falciparum Dd2. It counts as cell-based. As to conditions: Plasmodium falciparum, DD2, read-out: IC50^Dd2 (without VP).
Where [13] appears, read: Plasmodium falciparum, 3D7, 72 h.

Converted amounts (≈) assume the structure as drawn. “And” between values parts separate entries of the source, which are not always exact repeats. Identical values can stand only once. “Also recorded” adds a separate entry of the source. Like-named read-outs stand apart in the source and are kept apart here.

One may read the IC50 as the concentration at which inhibition is half-maximal. The term solubility (kinetic) denotes solubility judged after dilution from a stock solution rather than from solid. The term CC50 denotes the concentration at which the toxic effect on the cells reaches its halfway point. High values mean better tolerance by the cells, low ones harm at low concentration. Usually logD stands for the decadic logarithm of the distribution of all forms, ionised or not, between an organic phase and buffer at a given pH. Read a high logD as a more lipophilic compound. As a reminder, the LogD is lipophilicity at a set pH, counting ionised and neutral species. Take `O=C(c1cc2cc(Cl)ccc2[nH]1)N(Cc1cccnc1)CC1CCNC1` (stereo not drawn) [Compound 6a, 5-Chloro-N-(pyridin-3-ylmethyl)-N-(pyrrolidin-3-ylmethyl)-1H-indole-2-carboxamide]: the IC50 with P. falciparum K1 strain is 6.4 ± 0.1 µM; in the data set on HepG2 cells, over 20 µM; in data set [4] it was 1400 nM and 1000 nM; in data set [4] (setting [13]), 1390 nM; in data set [5] (NF54 strain), 800 ± 400 nM; in data set [5] (Plasmodium falciparum, NF54, NF54 strain) it was 840 nM. For the same compound, in the data set on P. falciparum Dd2 strain, the IC50 was 9.1 ± 0.1 µM. For the same compound, in “Rat hepatocyte stability” (pooled rat hepatocytes, rat hepatocyte intrinsic clearance, read-out: Rat hep Clint), the hepatocyte CLint at 1 μM stood at 14.6 µL/min/1e6 cells. Besides, in the data set “Rat hepatocyte stability”, the “R Heps (Clint)” value is 15 μL/min/10^6. Further, the “hMics, human microsome Clint” value in data set [1] worked out at 5 µL/min/mg. In data set [1], the microsomal CLint at 1 μM stood at 4.6 µL/min/mg. The kinetic solubility at 2 h in [2] amounted to 193 µM (≈ 71.2 µg/mL). The CC50 at 72 h in data set [3] was over 30 µM. Besides, the “Parasite Reduction Rate (PRR), rate of kill” value with P. falciparum is on record as “as fast as that of CQ; also recorded: Fast-acting inhibitor”. For the same compound, the logD at 2 h in data set [6] was found to be 0.62. In data set [6] (pH 7.4, miniaturized shake flask method), this compound had a LogD of 0.6.
`COc1ccc2[nH]c(C(=O)N(Cc3cccnc3)CC3CCNC3)cc2c1` (stereo not drawn) [Compound 6d, 5-Methoxy-N-(3-pyridylmethyl)-N-(pyrrolidin-3-ylmethyl)-1H-indole-2-carboxamide]: the “effect on digestive vacuole H+ homeostasis (acridine orange fluorescence)” value in data set [7] is “strong interaction”. For the same compound, in the data set “Rat hepatocyte stability”, the “R Heps (Clint)” value stood at 4 μL/min/10^6. For the same compound, the microsomal CLint at 1 μM in data set [1] amounted to 7 µL/min/mg. For the same compound, the solubility (kinetic) at 2 h in [2] is over 1000 µM. Also, the IC50 in [4] (setting [13]) was over 10000 nM. The compound further came in with a logD at 2 h in [6] of -0.4.
What is called EC50 is the concentration needed to bring the measured effect to its halfway point. Consider `C[C@H]1[C@H](OC(=O)CCC(=O)O)O[C@@H]2O[C@@]3(C)CC[C@H]4[C@H](C)CC[C@@H]1[C@@]24OO3` [artesunate], for which the IC50 was 1 nM in [8] (9 clinical isolates, ex vivo); 0.6 nM in [9] (7 clinical isolates, ex vivo); 8 nM with P. falciparum 3D7 clone (ex vivo assay conditions, 3D7 control, read-out: P. falciparum 3D7 IC50). Further, the EC50 came to 1 nM in data set [8] (ex vivo) and 0.6 nM in data set [9] (ex vivo).
On to `CCN(CC)CCCC(C)Nc1ccnc2cc(Cl)ccc12` (stereo not drawn) [chloroquine, reference compound], for which the IC50 was 39.8 nM in data set [10] (3D7, read-out: IC50^3D7 (without VP)); 40 to 50 nM in data set [10] (3D7, read-out: IC50 in 3D7 strain); 295 nM in [8]; 1200 nM in data set [9]; 12 nM with P. falciparum 3D7 clone (3D7, read-out: P. falciparum 3D7 IC50); 655 nM in data set [12]. The “timing of peak activity (lowest IC50^8h) in asexual blood stages” value in [11] is “peak activity at ring and trophozoite stages”. Besides, the results for the EC50 in data set [8] and in [9] were 295 nM and 1200 nM, respectively.

For the origin of these results see publication PMC12531871, “Indole-2-carboxamides Optimization for Antiplasmodial Activity” (ACS Bio & Med Chem Au, 2025).
